This is an account of results in article PMC10587737, “Dracorhodin targeting CMPK2 attenuates inflammation: A novel approach to sepsis therapy” (Clinical and Translational Medicine, 2023).

In experiment [1] the target is T1, CMPK2 lysine residues (Homo sapiens, UniProt Q5EBM0).
T1 construct: the N‐terminus was truncated by 22 amino acids; 6xHis (C); made in house; host or cells: FreeStyle 293-F cells (pTT5 vector)
T1 sequence (Q5EBM0 22-449): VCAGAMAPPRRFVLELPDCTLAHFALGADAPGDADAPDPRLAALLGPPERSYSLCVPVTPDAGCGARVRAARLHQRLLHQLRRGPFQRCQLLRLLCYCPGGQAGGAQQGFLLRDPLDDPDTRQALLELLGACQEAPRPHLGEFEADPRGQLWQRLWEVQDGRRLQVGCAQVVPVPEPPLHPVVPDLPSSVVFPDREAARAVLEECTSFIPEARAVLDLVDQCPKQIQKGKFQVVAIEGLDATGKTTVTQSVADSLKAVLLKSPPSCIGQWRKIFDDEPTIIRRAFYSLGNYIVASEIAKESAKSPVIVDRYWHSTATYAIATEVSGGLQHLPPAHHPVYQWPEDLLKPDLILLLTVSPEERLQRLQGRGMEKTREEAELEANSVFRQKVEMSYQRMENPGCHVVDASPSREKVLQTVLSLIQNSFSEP
The experiment in a line: Quantitative lysine reactivity profiling (dimethyl labelling). The method, then: The extent of DP intervention on lysine residues of CMPK2 conformational changes was visualized and the correlation between this effect and the inhibitory potency of the inhibitor was assessed. […] Finally, after the concentration of the active small molecule was fixed, the concentration of the target protein CMPK2 was tested for lysine labelling reactivity according to a gradient of 0.025, 0.05 and 0.1 mg/mL. The range of concentrations used to investigate the effect of small‐molecule ligands on CMPK2 activity was 0.1–150 μM. Each data point contains three biological replicates.
Stable isotope labeling reactions were performed in the active state of the target protein samples. In short, the sample was split into two identical portions. One portion was incubated with DP, and the other was incubated with DMSO vehicle for 30 min at 37℃. Then, mass-differentiated isotopic labeling was performed with heavy (30 mM CD2O, 5 mM NaBH3CN) and light (30 mM CH2O, 5 mM NaBH3CN) labeling reagents. Active isotopic labeling was allowed to proceed for the indicated time, and this experiment allowed incubation for 15 min at 25℃ in the dark. Add 5 M NH4AC and react for 10 min at room temperature to stop the labeling reaction. […] The digested peptide samples were collected by centrifugation, lyophilized, and stored at -80℃ for quantitative proteomic analysis.

Experiment [2] deals with siCmpk2/dsCmpk2-transduced BMDMs. Kind of experiment: Inflammasome readouts in siCmpk2- or dsCmpk2-transduced BMDMs. The experiment is classed as cell-based, mouse. The protocol:
BMDMs were plated in 6-well plates at a density of 1.5×10^6 cells per well and then transfected with 150 nM siRNA using Lipofectamine RNAiMAX according to the manufacturer’s guidelines (Invitrogen). siRNA sequences were chemically synthesized by GenePharma, and the negative control siRNA was also from GenePharma. The siRNA sequences were as follows: sicmpk2 5’-[…]-3’.
Full-length human CMPK2 was cloned and inserted into a pcDNA3.1(+) vector (Invitrogen) for expression in mouse BMDMs. An HA tag was placed after the C-terminal of CMPK2. Mouse BMDMs were transfected using Fugene HD Transfection Reagent (Promega) with the CMPK2 plasmid. BMDMs were plated in 6-well plates at a density of 1.5×10^6 cells per well and then transfected with 6 μg dsDNA using FuGENE according to the manufacturer’s guidelines (Promega).

Molecules are shown by their SMILES.

Take `COc1c2ccc(-c3ccccc3)oc-2cc(=O)c1C` [compound 73, Dracohodin perochlorate]: the “isotope-labelling ratios of lysine residues” value in experiment [1] (residues K245, K249, K282, K320, K324, K293, K265, K251, K277 and K368) was “lower than 0.5”. Moreover, in experiment [1] (residues K393, K433 and K409, DP–CMPK2 co-incubation), the “isotope-labelling ratios of lysine residues” value was “approximately 1”. In addition, in experiment [2] (CMPK2-overexpressing BMDMs), the “effect on TNF-α in supernatant” value was “negligible” and the “inhibitory effect on IL-1β” value was “reversed”. For the same molecule, the “release of TNF-α in supernatant” value in experiment [2] (WT/siCmpk2 BMDMs, DP 12 or 1 h, ATP/Nigericin) was “no significant change”. The ASC oligomerization entry in experiment [2] (siCmpk2-transduced BMDMs, different concentrations of DP) was “not significantly altered”.
